{"source": "patent EP4763845A1", "about": "“CYANO AROMATIC RING DERIVATIVE AND PHARMACEUTICAL USE THEREOF” (Haisco Pharmaceutical Group Co., Ltd., priority 2023, dated 2025)", "key": {"[1]": {"test": "Pharmacokinetic test in rats", "assay_type": "in vivo, SD rats", "settings": "i.g. (5 mg/kg), vehicle 5% DMSO+5% Solutol+10% PEG400+80% (20% SBE-β-CD)", "experimental": "Experimental objective: In this experiment, a single dose of the test compound was administered to SD rats via intravenous administration and intragastric gavage, and the concentration of the test compound in plasma of the rats was measured to evaluate the pharmacokinetic profile of the test compound in the rats.\nExperimental animals: Male SD rats, 200-220 g, 6 rats/compound, purchased from Chengdu Ddossy Experimental Animals Co., Ltd.\nExperimental method: On the day of the experiment, 6 SD rats were randomly grouped according to their body weights. The animals were fasted with water available for 12 to 14 h one day before the administration, and were fed 4 h after the administration. Table 3 Administration information of pharmacokinetic test in rats\nSampling: Before and after the administration, 0.1 mL of blood was taken from the orbits under isoflurane anaesthesia, and placed in an EDTAK2 centrifuge tube. Centrifugation was carried out at 5000 rpm at 4°C for 10 min, and the plasma was collected.\nThe plasma collection time points for IV&PO groups were 0, 5 min, 15 min, 30 min, 1 h, 2 h, 4 h, 7 h, 24 h, and 48 h.\nBefore analysis and detection, all samples were stored at -60°C. The samples were analysed quantitatively by LC-MS/MS. Table 4 Pharmacokinetic parameters of compounds of the present invention in plasma of rats"}, "[2]": {"molecular_target": "T1, hERG potassium channel (Homo sapiens, UniProt Q12809)", "T1 construct": "expressed in transfected cells; host or cells: CHO cells stably expressing hERG", "T1 sequence (Q12809 whole entry)": "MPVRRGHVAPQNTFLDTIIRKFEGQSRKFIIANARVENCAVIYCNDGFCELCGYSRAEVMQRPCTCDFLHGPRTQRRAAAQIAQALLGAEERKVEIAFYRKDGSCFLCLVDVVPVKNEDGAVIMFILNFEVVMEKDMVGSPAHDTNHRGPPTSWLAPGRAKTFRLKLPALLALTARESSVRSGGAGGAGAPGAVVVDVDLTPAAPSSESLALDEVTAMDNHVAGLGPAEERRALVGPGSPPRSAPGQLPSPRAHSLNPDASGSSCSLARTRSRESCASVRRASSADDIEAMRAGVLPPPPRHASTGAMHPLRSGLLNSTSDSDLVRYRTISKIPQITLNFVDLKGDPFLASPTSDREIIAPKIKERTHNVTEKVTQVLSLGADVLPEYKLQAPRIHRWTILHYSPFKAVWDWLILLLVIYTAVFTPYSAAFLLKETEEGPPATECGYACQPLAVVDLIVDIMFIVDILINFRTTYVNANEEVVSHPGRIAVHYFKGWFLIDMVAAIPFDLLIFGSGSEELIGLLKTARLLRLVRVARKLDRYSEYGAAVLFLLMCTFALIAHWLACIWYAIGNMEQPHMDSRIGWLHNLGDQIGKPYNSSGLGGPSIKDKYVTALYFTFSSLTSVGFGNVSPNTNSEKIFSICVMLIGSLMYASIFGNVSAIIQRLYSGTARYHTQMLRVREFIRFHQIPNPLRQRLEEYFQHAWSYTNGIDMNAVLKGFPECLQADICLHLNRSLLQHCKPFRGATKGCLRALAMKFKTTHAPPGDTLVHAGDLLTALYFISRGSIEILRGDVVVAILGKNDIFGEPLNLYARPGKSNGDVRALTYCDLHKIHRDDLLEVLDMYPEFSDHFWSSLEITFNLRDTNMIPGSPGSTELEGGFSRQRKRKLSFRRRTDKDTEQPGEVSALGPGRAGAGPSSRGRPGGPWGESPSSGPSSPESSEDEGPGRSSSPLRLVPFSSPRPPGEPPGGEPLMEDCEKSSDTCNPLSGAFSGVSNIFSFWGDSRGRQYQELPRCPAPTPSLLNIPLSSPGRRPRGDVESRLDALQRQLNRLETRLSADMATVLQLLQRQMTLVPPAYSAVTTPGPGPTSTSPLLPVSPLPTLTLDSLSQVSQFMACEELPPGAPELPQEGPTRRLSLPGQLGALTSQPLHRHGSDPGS", "test": "hERG potassium ion channel test (manual patch-clamp, CHO cells)", "assay_type": "cell-based", "settings": "chinese hamster; inhibitory activity against hERG potassium channel current, CHO cells, whole cell patch-clamp; read-out: IC50"}}}
{"smiles": "CC1(C)[C@H](NC(=O)c2ccc(N3CCC(CN4CCN5c6cc(F)c(C7CCC(=O)NC7=O)cc6CC[C@H]5C4)CC3)cc2)C(C)(C)[C@H]1Oc1ccc(C#N)c2ncccc12", "note": "(stereo partly drawn) [Compound 31]", "values": [{"measurement": "F", "setting": "[1]", "value": "49.1+12%"}, {"measurement": "AUC(0-t)", "setting": "[1]; rat, plasma, po", "value": "5430 ± 1360", "unit": "ng·h/mL"}, {"measurement": "IC50", "setting": "[2]", "value": "> 40", "unit": "µM"}]}
